Measured values: patent publication US12649750B2, “Macrocyclic compounds, compositions, and methods of using thereof” (Sionna Therapeutics Inc., priority 2022, dated 2026)

Molecular target: T1, NBD1 (Homo sapiens, UniProt P13569)
T1 construct: Purified recombinant NBD1 was produced using previously described methods; made in house
Test: Aggregation analysis using differential static light scattering (DSLS), thermal stability of NBD1 (ΔTagg)
Assay type: binding
Details: ΔTagg versus DMSO control, NBD1 0.2 mg/ml
Protocol: Example 386. Aggregation Analysis Using Differential Static Light Scattering (DSLS)
Purified recombinant NBD1 was produced using previously described methods (A. Schmidt, J. L. Mendoza, P. J. Thomas (2011) Biochemical and Biophysical Approaches to Probe CFTR Structure (365-376) M. D. Amaral, K. Kunzelmann (eds.), Cystic Fibrosis, Methods in Molecular Biology 741, Springer Science+Business Media). The effect of test compounds on thermal stability of NBD1 was evaluated by differential static light scattering (DSLS) using the Harbinger Stargazer-384 instrument (Epiphyte Three, Toronto, Canada). Test compounds were dissolved and diluted to desired concentrations in 100% DMSO. The compounds or DMSO controls (100 nL) were stamped into wells of a […] low volume optical plate (Corning Inc., Corning, NY) using the Echo 555 acoustic liquid handler (Labcyte Inc., San Jose, CA).
NBD1 protein was diluted to 0.2 mg/ml in S200 buffer (50 mM Tris-HCl, 150 mM NaCl, 5 mM MgCl2, 2 mM ATP, 2 mM DTT, pH7.6) containing 1% glycerol. 10 uL of protein solution was aliquoted into the 384-well plate harboring the test compounds and 10 uL mineral oil was overlaid onto the protein solution, using the epMotion robotic liquid handler (Eppendorf North America, Hauppauge, NY). After placing into the Stargazer instrument, the plate was heated at 1° C. per minute to 70° C. Images were captured from 25° C. to 70° C. every 0.5° C. At the end of the experiment run, instrument software integrated image files and analyzed data automatically. A […] regression curve was generated for each well, representing the increase in light scattering over time. A temperature of aggregation (Tagg) was calculated based on the inflection point of the curve. To better compare data across experiments the average Tagg for DMSO control wells was calculated and subtracted from values for wells containing compounds to obtain a “ΔTagg” value. These ΔTagg values reflect stabilizing efficacy of the compounds. As set forth in Table 2 below, an ΔTagg value less than or equal to 5° C. is marked “A”; a value above 5° C. and less than or equal to 10° C. is marked “B”; a value greater than 10° C. and less than or equal to 25° C. is marked “C”.

T1 sequence (P13569 423-646 limits assumed): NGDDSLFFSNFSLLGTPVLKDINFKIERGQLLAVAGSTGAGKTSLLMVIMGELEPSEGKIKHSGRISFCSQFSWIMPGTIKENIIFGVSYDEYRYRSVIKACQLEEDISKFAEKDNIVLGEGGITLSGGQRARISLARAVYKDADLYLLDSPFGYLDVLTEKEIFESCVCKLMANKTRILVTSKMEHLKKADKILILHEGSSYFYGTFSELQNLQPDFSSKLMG

SMILES	DSLS 3D (100 μM ΔT)
C[C@@H](Cc1cccc(C2(C)CCCC(C)(C)CS(=O)(=O)CCc3c(c(F)cc4[nH]ccc34)[S+]([O-])c3ccnc(c3)-c3nc2nn3C)n1)C(=O)O (single isomer, unassigned) [Compound 315C]	A (an ΔTagg value less than or equal to 5 °C is marked “A”)
C[C@@H](Cc1cccc(C2(C)CCCC(C)(C)CS(=O)(=O)CCc3c(c(F)cc4[nH]ccc34)[S+]([O-])c3ccnc(c3)-c3nc2nn3C)n1)C(=O)O (single isomer, unassigned) [Compound 315D]	B (a value above 5 °C and less than or equal to 10 °C is marked “B”)
CC1c2ccnc(c2)-c2nc(nn2C)[C@@](C)(c2cccc(C[C@H](C)C(=O)O)c2)CCCC(C)(C)CS(=O)(=O)CCc2c1c(F)c(F)c1[nH]ccc21 (single isomer, unassigned) [Compound 316A]	B (a value above 5 °C and less than or equal to 10 °C is marked “B”)
CC1c2ccnc(c2)-c2nc(nn2C)[C@@](C)(c2cccc(C[C@H](C)C(=O)O)c2)CCCC(C)(C)CS(=O)(=O)CCc2c1c(F)c(F)c1[nH]ccc21 (single isomer, unassigned) [Compound 316B]	A (an ΔTagg value less than or equal to 5 °C is marked “A”)
CC1c2ccnc(c2)-c2nc(nn2C)[C@@](C)(c2cccc(C[C@@H](C)C(=O)O)c2)CCCC(C)(C)CS(=O)(=O)CCc2c1c(F)c(F)c1[nH]ccc21 (single isomer, unassigned) [Compound 317A]	B (a value above 5 °C and less than or equal to 10 °C is marked “B”)
CC1c2ccnc(c2)-c2nc(nn2C)[C@@](C)(c2cccc(C[C@@H](C)C(=O)O)c2)CCCC(C)(C)CS(=O)(=O)CCc2c1c(F)c(F)c1[nH]ccc21 (single isomer, unassigned) [Compound 317B]	A (an ΔTagg value less than or equal to 5 °C is marked “A”)
CC1c2ccnc(c2)-c2nc(nn2C)[C@@](C)(c2cccc(CC(C)(C)C(=O)O)c2)CCCC(C)(C)CS(=O)(=O)CCc2c1c(F)c(F)c1[nH]ccc21 (single isomer, unassigned) [Compound 318A]	A (an ΔTagg value less than or equal to 5 °C is marked “A”)
CC1c2ccnc(c2)-c2nc(nn2C)[C@@](C)(c2cccc(CC(C)(C)C(=O)O)c2)CCCC(C)(C)CS(=O)(=O)CCc2c1c(F)c(F)c1[nH]ccc21 (single isomer, unassigned) [Compound 318B]	A (an ΔTagg value less than or equal to 5 °C is marked “A”)
C[C@H](Cc1cccc([C@@]2(C)CCCC(C)(C)CS(=O)(=O)CCc3c(c(F)c(F)c4[nH]ccc34)[S+]([O-])c3ccc(F)c(c3)-c3nc2nn3C)c1)C(=O)O (single isomer, unassigned) [Compound 319]	B (a value above 5 °C and less than or equal to 10 °C is marked “B”)
Cn1nc2nc1-c1cc(ccc1F)[S+]([O-])c1c(F)c(F)c3[nH]cc(CC(=O)O)c3c1CCS(=O)(=O)CC(C)(C)CCC[C@]2(C)c1ccccc1 (single isomer, unassigned) [Compound 326]	A (an ΔTagg value less than or equal to 5 °C is marked “A”)
C[C@@H](Cc1cccc([C@@]2(C)CCCC(C)(C)CS(=O)(=O)CCc3c(c(F)cc4[nH]ccc34)[S+]([O-])c3cccc(c3)-c3coc2n3)c1)C(=O)O (single isomer, unassigned) [Compound 330]	A (an ΔTagg value less than or equal to 5 °C is marked “A”)
Cn1nc2nc1-c1cc(ccn1)[S+]([O-])c1c(F)cc3[nH]ccc3c1CCS(=O)(=O)CC(C)(C)CCC[C@]2(C)c1cccc(C[C@H](O)CO)c1 (single isomer, unassigned) [Compound 334]	B (a value above 5 °C and less than or equal to 10 °C is marked “B”)
Cn1nc2nc1-c1cc(ccn1)[S+]([O-])c1c(F)cc3[nH]ccc3c1CCS(=O)(=O)CC(C)(C)CCC[C@]2(C)c1cccc(C[C@@H](O)CO)c1 (single isomer, unassigned) [Compound 337]	A (an ΔTagg value less than or equal to 5 °C is marked “A”)
Cn1nc2nc1-c1cc(ccn1)[S+]([O-])c1c(F)c(F)c3[nH]ccc3c1CCS(=O)(=O)CC(C)(C)CCC[C@]2(C)c1cccc(C[C@H](O)CO)c1 (single isomer, unassigned) [Compound 341]	B (a value above 5 °C and less than or equal to 10 °C is marked “B”)
CNC(=O)[C@H](C)Cc1cccc([C@@]2(C)CCCC(C)(C)CS(=O)(=O)CC(NC)c3c(c(F)c(F)c4[nH]ccc34)Oc3ccc(F)c(c3)-c3nc2nn3C)c1 (single isomer, unassigned) [Compound 360B]	B (a value above 5 °C and less than or equal to 10 °C is marked “B”)
CNC(=O)[C@H](C)Cc1cccc([C@@]2(C)CCCC(C)(C)CS(=O)(=O)CC(NC)c3c(c(F)c(F)c4[nH]ccc34)Oc3ccc(F)c(c3)-c3nc2nn3C)c1 (single isomer, unassigned) [Compound 360C]	A (an ΔTagg value less than or equal to 5 °C is marked “A”)
Cn1nc2nc1-c1cc(ccn1)[S+]([O-])c1c(F)cc3[nH]cc(CC(=O)O)c3c1CCS(=O)(=O)CC(C)(C)CCC[C@]2(C)c1ccccc1 (single isomer, unassigned) [Compound 365]	A (an ΔTagg value less than or equal to 5 °C is marked “A”)
C[C@H](Cc1cccc([C@@]2(C)CCCC(C)(C)CS(=O)(=O)CC(N(C)C)c3c(c(F)c(F)c4[nH]ccc34)Oc3ccc(F)c(c3)-c3nc2nn3C)c1)C(=O)N(C)C (single isomer, unassigned) [Compound 367A]	A (an ΔTagg value less than or equal to 5 °C is marked “A”)
C[C@H](Cc1cccc([C@@]2(C)CCCC(C)(C)CS(=O)(=O)CC(N(C)C)c3c(c(F)c(F)c4[nH]ccc34)Oc3ccc(F)c(c3)-c3nc2nn3C)c1)C(=O)N(C)C (single isomer, unassigned) [Compound 367B]	A (an ΔTagg value less than or equal to 5 °C is marked “A”)
CNC(=O)[C@@H](C)Cc1cccc([C@@]2(C)CCCC(C)(C)CS(=O)(=O)CC(NC)c3c(c(F)cc4[nH]ccc34)Sc3ccc(F)c(c3)-c3nc2nn3C)c1 (single isomer, unassigned) [Compound 368A]	B (a value above 5 °C and less than or equal to 10 °C is marked “B”)
CNC(=O)[C@@H](C)Cc1cccc([C@@]2(C)CCCC(C)(C)CS(=O)(=O)CC(NC)c3c(c(F)cc4[nH]ccc34)Sc3ccc(F)c(c3)-c3nc2nn3C)c1 (single isomer, unassigned) [Compound 368B]	A (an ΔTagg value less than or equal to 5 °C is marked “A”)
CC(=O)NC1CS(=O)(=O)CC(C)(C)CCC[C@](C)(c2cccc(C[C@@H](C)C(=O)O)c2)c2nc(n(C)n2)-c2cc(ccc2F)Oc2c(F)c(F)c3[nH]ccc3c21 (single isomer, unassigned) [Compound 369A]	C (a value greater than 10 °C and less than or equal to 25 °C is marked “C”)
CC(=O)NC1CS(=O)(=O)CC(C)(C)CCC[C@](C)(c2cccc(C[C@@H](C)C(=O)O)c2)c2nc(n(C)n2)-c2cc(ccc2F)Oc2c(F)c(F)c3[nH]ccc3c21 (single isomer, unassigned) [Compound 369B]	B (a value above 5 °C and less than or equal to 10 °C is marked “B”)
C[C@@H](Cc1cccc([C@@]2(C)CCCC(C)(C)CS(=O)(=O)CC(N)c3c(c(F)cc4[nH]ccc34)Sc3ccc(F)c(c3)-c3nc2nn3C)c1)C(N)=O (single isomer, unassigned) [Compound 370A]	B (a value above 5 °C and less than or equal to 10 °C is marked “B”)
C[C@@H](Cc1cccc([C@@]2(C)CCCC(C)(C)CS(=O)(=O)CC(N)c3c(c(F)cc4[nH]ccc34)Sc3ccc(F)c(c3)-c3nc2nn3C)c1)C(N)=O (single isomer, unassigned) [Compound 370B]	A (an ΔTagg value less than or equal to 5 °C is marked “A”)
COCC(Cc1cccc([C@@]2(C)CCCC(C)(C)CS(=O)(=O)CCc3c(c(F)c(F)c4[nH]ccc34)[S+]([O-])c3ccc(F)c(c3)-c3nc2nn3C)c1)C(=O)O (single isomer, unassigned) [Compound 371]	B (a value above 5 °C and less than or equal to 10 °C is marked “B”)
COCC(Cc1cccc([C@@]2(C)CCCC(C)(C)CS(=O)(=O)CCc3c(c(F)c(F)c4[nH]ccc34)[S+]([O-])c3ccc(F)c(c3)-c3nc2nn3C)c1)C(=O)O (single isomer, unassigned) [Compound 372]	B (a value above 5 °C and less than or equal to 10 °C is marked “B”)
COCC(Cc1cccc([C@@]2(C)CCCC(C)(C)CS(=O)(=O)CCc3c(c(F)c(F)c4[nH]ccc34)[S+]([O-])c3ccnc(c3)-c3nc2nn3C)c1)C(=O)O (single isomer, unassigned) [Compound 374]	B (a value above 5 °C and less than or equal to 10 °C is marked “B”)
